Reference: US8044057B2, “Methods for suppressing an immune response or treating a proliferative disorder” (The United States of America as represented by the …, priority 2003, dated 2011)

Experiments:
AKT = assay: Western blot of phospho-Akt S473 in PASM cells; format: cell-based, human
Protocol: FIGS. 4A-4D are bar graphs and digital images showing that LY303511 inhibits serum-stimulated phosphorylation of S6K and Akt (FIGS. 4A and 4B), as well as proliferation in PASM cells (FIGS. 4C and 4D). After incubation in serum-free medium for 24 hours, PASM cells were incubated without or with 100 μM LY303511, rapamycin, 200 ng/ml, or 200 nM wortmannin (FIG. 4A), or 0-100 μM LY303511 (FIG. 4B), for 1 hour before the addition of 10% FBS for 30 min and preparation of cell lysates. Equal amounts of protein (20 μg/gel) were separated by SDS-PAGE and transferred to nitrocellulose membranes before immunodetection of phospho-p70 S6 kinase T389 (pS6K) orphospho-Akt S473 (pAkt) by Western blot. Data are from one experiment representative of five.
HPASM cells were purchased from Clonetics and passaged according to the manufacturer's instructions. Cells were plated in 100 mm dishes, and allowed to grow to near confluence before serum starvation for 24 hours. […] Cells were homogenized and the indicated proteins were detected by Western blot.
Measurement of protein phosphorylation: A549 cells were incubated in serum-free medium without or with inhibitors for 1 hour, as indicated, before incubation for 30 minutes with a mixture of LPS, 100 μg/ml (Sigma; St. Louis, Mo.) and IFN-γ, 100 U/ml (Roche; Nutley, N.J.). […] Integrated band densities were quantified using Scion Image beta 3b software.

PASM cells = assay: Propidium iodide flow cytometry cell cycle analysis in PASM cells; format: cell-based, human; settings: 24 hours
Protocol: FIGS. 5A-5B are bar graphs showing that LY303511 inhibits the cell cycle by causing combined G1 and G2/M arrest and that LY303511 inhibits CK2 activity. For the data shown in FIG. 5A, PASM cells were cultured in medium with FBS for 48 hours before the addition of 0-100 μM LY303511 without or with raparnycin, 400 ng/ml, for 24 hours. Cells were then harvested and incubated with propidium iodide for 2 hours before counting using a Becton-Dickson FACSCalibur. Data are the means (±SEM) of percentages of cells in G1, S, or G2/M phase of the cell cycle in three experiments with duplicate assays. *p<0.05 vs. DMSO control, or †p<0.05 vs. 10 μM LY303511, by Student's t—test. FIG. 5B is a bar graph showing that LY303511 or LY294002 inhibits CK2 in vitro. […] Data are the means of values for samples with inhibitors expressed as percentage of that for control, which was (mean±SEM) 0.2±0.03 pmol phosphate/100 ng protein/10 min. […]
In order to investigate the effect of LY303511 on the cell cycle, A549 cells or pulmonary artery smooth muscle cells were grown to sub-confluence in serum-containing media, and incubated with vehicle, 10, or 100 mcM LY303511, without or with Rapamycin (200 ng/ml), for 24 hours. […] The proportion of cells in G1, S, or G2/M phase of the cell cycle for each experimental condition was determined. […]

IC50 (AKT; Homo sapiens, pulmonary artery smooth muscle cells, densitometry, read-out: IC50 for inhibition of Akt phosphorylation): 10 to 100 µM
Compound: O=c1cc(N2CCNCC2)oc2c(-c3ccccc3)cccc12 [LY303511, 2-(4-piperazinyl)-8-phenyl-4H-1-benzopyran-4-one]
phosphorylation of AKT (AKT; PASM cells, 10% FBS for 30 minutes): inhibits phosphorylation of AKT, albeit to a lesser extent than phosphorylation of p70 S6 kinase | G1 phase cells (G1 arrest) (PASM cells): negligible | proportion of cells in S phase (PASM cells): reduced the proportion of cells in S phase
